From patent US11693163B2, “Optical filter and imaging device” (AGC Inc., priority 2015, dated 2023) come the findings set out here.

A short description of data set [1]: Solubility of NIR dye to resin solution. Format: physicochemical. To be noted: stirred two hours; for Solubility evaluation, Polyimide resin: 12.5 mass % C3450 in cyclohexanone:NMP=1:1, 50° C.; for Solubility evaluation, Polyester resin: 12.5 mass % OKP850 in cyclohexanone:NMP=1:1, 50° C.; for Solubility evaluation, Polyethersulfone resin: 12.5 mass % PES4800 in cyclohexanone:NMP=1:1, 50° C. As to the method:
Results are illustrated in Table 8 together with the kinds of the used dyes. Note that the temperature of the resin solution in the solubility test was set to 50° C., the NIR dye was put into the resin solution, the resultant resin solution was stirred for two hours, and the presence/absence of occurrence of the dissolution was observed visually. Evaluation criteria of the solubility are as follows.
A: Solubility of 9 mass % or more
B: Solubility of 7 mass % or more and less than 9 mass %
C: Solubility of 5 mass % or more and less than 7 mass %
D: Solubility of 3 mass % or more and less than 5 mass %
E: Solubility of 1 mass % or more and less than 3 mass %
F: Solubility of less than 1 mass %

The nature of data set [2]: Absorption characteristic of NIR dye in dichloromethane. Format: physicochemical. From the text: The obtained NIR dyes were each dissolved in dichloromethane, and an ultraviolet-visible spectrophotometer (manufactured by Hitachi High Technologies Co., Ltd., U-4100 type) was used to measure each spectral transmittance curve, from which a maximum absorption wavelength λmax, a wavelength λ80 at which the transmittance becomes 80% on a shorter wavelength side than the maximum absorption wavelength with the transmittance at the maximum absorption wavelength set to 10%, a difference between the maximum absorption wavelength λmax and the wavelength λ80 (λmax−λ80), a maximum absorption constant εA in light of a wavelength range of 430 to 550 nm, a maximum absorption constant εB in light of a wavelength range of 670 to 730 nm, and a ratio of these (εB/εA) were calculated. Note that the U-4100 type was used for the measurement of spectral transmittance curves in each of the following examples.

Each structure is given as a SMILES string.

For the molecule `CCCOC(=O)Nc1cc2c(cc1C1=C([O-])C(=c3cc4c(cc3NC(=O)OCCC)=[N+](C(C)(CC)CC)C(C)C4(C)C)C1=O)C(C)(C)C(C)N2C(C)(CC)CC` (stereo not drawn) [A1-12], in data set [1], the “Solubility evaluation, Polyimide resin” value was “A (9 mass % or more)”; the “Solubility evaluation, Polyester resin” value was “A (9 mass % or more)”; the “Solubility evaluation, Polyethersulfone resin” value is listed as “A (9 mass % or more)”. Also, in data set [2], the “εA (maximum absorption constant, 430 to 550 nm)” value is 0.017; the “εB (maximum absorption constant, 670 to 730 nm)” value is on record as 1; the εB/εA came out at 59.7; the “λ80 (wavelength of 80% transmittance, shorter side of λmax, transmittance at λmax set to 10%)” value was 656 nm. Besides, in data set [2], the “λmax (maximum absorption wavelength)” value came to 707 nm and the λmax-λ80 worked out at 51 nm.

Turning to `CCCCCOC(=O)Nc1cc2c(cc1C1=C([O-])C(=c3cc4c(cc3NC(=O)OCCCCC)=[N+](C(C)C)C(C)C4(C)C)C1=O)C(C)(C)C(C)N2C(C)C` (stereo not drawn) [A1-7], in data set [1], the “Solubility evaluation, Polyimide resin” value was “A (9 mass % or more)”; the “Solubility evaluation, Polyester resin” value is recorded as “A (9 mass % or more)”; the “Solubility evaluation, Polyethersulfone resin” value is recorded as “A (9 mass % or more)”. In data set [2], the “εA (maximum absorption constant, 430 to 550 nm)” value was determined as 0.016; the “εB (maximum absorption constant, 670 to 730 nm)” value was 1; the εB/εA was determined as 61.8; the “λ80 (wavelength of 80% transmittance, shorter side of λmax, transmittance at λmax set to 10%)” value is 647 nm. In data set [2], the “λmax (maximum absorption wavelength)” value came to 697 nm and the λmax-λ80 was found to be 50 nm.

With `CCCc1ccc(OC(=O)Nc2cc3c(cc2C2=C([O-])C(=c4cc5c(cc4NC(=O)Oc4ccc(CCC)cc4)=[N+](C)C(C)C5(C)C)C2=O)C(C)(C)C(C)N3C)cc1` (stereo not drawn) [A1-5], in data set [1], the “Solubility evaluation, Polyimide resin” value is “F (Less than 1 mass %)”; the “Solubility evaluation, Polyester resin” value is “F (Less than 1 mass %)”; the “Solubility evaluation, Polyethersulfone resin” value is listed as “F (Less than 1 mass %)”. Moreover, in data set [2], the “εA (maximum absorption constant, 430 to 550 nm)” value is on record as 0.016; the “εB (maximum absorption constant, 670 to 730 nm)” value stood at 1; the εB/εA came out at 63.9; the “λ80 (wavelength of 80% transmittance, shorter side of λmax, transmittance at λmax set to 10%)” value stood at 636 nm. Besides, in data set [2], the “λmax (maximum absorption wavelength)” value was determined as 693 nm and the λmax-λ80 is recorded as 57 nm.

Turning to `CCCCC(CC)C(=O)Nc1cc2c(cc1C1=C([O-])C(=c3cc4c(cc3NC(=O)C(CC)CCCC)=[N+](C(C)C)C(C)C4(C)C)C1=O)C(C)(C)C(C)N2C(C)C` (stereo not drawn) [A3, reference compound], in data set [2], the “εA (maximum absorption constant, 430 to 550 nm)” value was determined as 0.020; the “εB (maximum absorption constant, 670 to 730 nm)” value is recorded as 1; the εB/εA amounted to 49.1; the “λ80 (wavelength of 80% transmittance, shorter side of λmax, transmittance at λmax set to 10%)” value came out at 656 nm. Also, in data set [2], the “λmax (maximum absorption wavelength)” value turned out to be 706 nm and the λmax-λ80 amounted to 50 nm.

On to `CCCCCOC(=O)Nc1cc2c(cc1C1=C([O-])C(=c3cc4c(cc3NC(=O)OCCCCC)=[N+](C)C(C)C4(C)C)C1=O)C(C)(C)C(C)N2C` (stereo not drawn) [A1-3], for which, in data set [1], the “Solubility evaluation, Polyimide resin” value is “A (9 mass % or more)”; the “Solubility evaluation, Polyester resin” value is “A (9 mass % or more)”; the “Solubility evaluation, Polyethersulfone resin” value is given as “A (9 mass % or more)”. For the same molecule, in data set [2], the “εA (maximum absorption constant, 430 to 550 nm)” value was 0.013; the “εB (maximum absorption constant, 670 to 730 nm)” value turned out to be 1; the εB/εA is on record as 77.5; the “λ80 (wavelength of 80% transmittance, shorter side of λmax, transmittance at λmax set to 10%)” value was determined as 633 nm. Moreover, in data set [2], the “λmax (maximum absorption wavelength)” value is 691 nm and the λmax-λ80 worked out at 58 nm.

With `CCCCCCCOc1ccc(C(=O)Nc2cc3c(cc2C2=C([O-])C(=c4cc5c(cc4NC(=O)c4ccc(OCCCCCCC)cc4)=[N+](C(C)C)C(C)C5(C)C)C2=O)C(C)(C)C(C)N3C(C)C)cc1` (stereo not drawn) [A4, reference compound], in data set [2], the “εA (maximum absorption constant, 430 to 550 nm)” value was 0.029; the “εB (maximum absorption constant, 670 to 730 nm)” value is given as 1; the εB/εA is recorded as 34.7; the “λ80 (wavelength of 80% transmittance, shorter side of λmax, transmittance at λmax set to 10%)” value is 659 nm. In addition, in data set [2], the “λmax (maximum absorption wavelength)” value amounted to 710 nm and the λmax-λ80 was found to be 51 nm.

`CCCOC(=O)Nc1cc2c(cc1C1=C([O-])C(=c3cc4c(cc3NC(=O)OCCC)=[N+](C(C)C)C(C)C4(C)C)C1=O)C(C)(C)C(C)N2C(C)C` (stereo not drawn) [A1-6]: in data set [1], the “Solubility evaluation, Polyimide resin” value was “A (9 mass % or more)”; the “Solubility evaluation, Polyester resin” value is on record as “A (9 mass % or more)”; the “Solubility evaluation, Polyethersulfone resin” value was “A (9 mass % or more)”. In addition, in data set [2], the “εA (maximum absorption constant, 430 to 550 nm)” value amounted to 0.016; the “εB (maximum absorption constant, 670 to 730 nm)” value was 1; the εB/εA is 63.9; the “λ80 (wavelength of 80% transmittance, shorter side of λmax, transmittance at λmax set to 10%)” value is 647 nm. In addition, in data set [2], the “λmax (maximum absorption wavelength)” value came out at 697 nm and the λmax-λ80 amounted to 50 nm.

Consider `CCCOC(=O)Nc1cc2c(cc1C1=C([O-])C(=c3cc4c(cc3NC(=O)OCCC)=[N+](C(C)(C)CC)C(C)C4(C)C)C1=O)C(C)(C)C(C)N2C(C)(C)CC` (stereo not drawn) [A1-10], for which, in data set [1], the “Solubility evaluation, Polyimide resin” value was “A (9 mass % or more)”; the “Solubility evaluation, Polyester resin” value is listed as “A (9 mass % or more)”; the “Solubility evaluation, Polyethersulfone resin” value is given as “A (9 mass % or more)”. Further, in data set [2], the “εA (maximum absorption constant, 430 to 550 nm)” value is listed as 0.018; the “εB (maximum absorption constant, 670 to 730 nm)” value came out at 1; the εB/εA is 55.5; the “λ80 (wavelength of 80% transmittance, shorter side of λmax, transmittance at λmax set to 10%)” value was determined as 658 nm. In data set [2], the “λmax (maximum absorption wavelength)” value stood at 705 nm and the λmax-λ80 came out at 47 nm.

For the molecule `COC(=O)Nc1cc2c(cc1C1=C([O-])C(=c3cc4c(cc3NC(=O)OC)=[N+](C)C(C)C4(C)C)C1=O)C(C)(C)C(C)N2C` (stereo not drawn) [A1-1], in data set [1], the “Solubility evaluation, Polyimide resin” value was “E (1 mass % or more and less than 3 mass %)”; the “Solubility evaluation, Polyester resin” value was “D (3 mass % or more and less than 5 mass %)”; the “Solubility evaluation, Polyethersulfone resin” value is “E (1 mass % or more and less than 3 mass %)”. Besides, in data set [2], the “εA (maximum absorption constant, 430 to 550 nm)” value is 0.014; the “εB (maximum absorption constant, 670 to 730 nm)” value was determined as 1; the εB/εA came to 71.1; the “λ80 (wavelength of 80% transmittance, shorter side of λmax, transmittance at λmax set to 10%)” value is reported as 632 nm. Further, in data set [2], the “λmax (maximum absorption wavelength)” value came out at 691 nm and the λmax-λ80 came out at 59 nm.

Take `CC(C)OC(=O)Nc1cc2c(cc1C1=C([O-])C(=c3cc4c(cc3NC(=O)OC(C)C)=[N+](C(C)C)C(C)C4(C)C)C1=O)C(C)(C)C(C)N2C(C)C` (stereo not drawn) [A1-8]: in data set [1], the “Solubility evaluation, Polyimide resin” value is on record as “A (9 mass % or more)”; the “Solubility evaluation, Polyester resin” value was “A (9 mass % or more)”; the “Solubility evaluation, Polyethersulfone resin” value is reported as “A (9 mass % or more)”. In data set [2], the “εA (maximum absorption constant, 430 to 550 nm)” value turned out to be 0.017; the “εB (maximum absorption constant, 670 to 730 nm)” value came to 1; the εB/εA came to 60.2; the “λ80 (wavelength of 80% transmittance, shorter side of λmax, transmittance at λmax set to 10%)” value was determined as 647 nm. In data set [2], the “λmax (maximum absorption wavelength)” value is recorded as 697 nm and the λmax-λ80 is listed as 50 nm.

As for `CCCCC(CC)COC(=O)Nc1cc2c(cc1C1=C([O-])C(=c3cc4c(cc3NC(=O)OCC(CC)CCCC)=[N+](C)C(C)C4(C)C)C1=O)C(C)(C)C(C)N2C` (stereo not drawn) [A1-4], in data set [1], the “Solubility evaluation, Polyimide resin” value is reported as “A (9 mass % or more)”; the “Solubility evaluation, Polyester resin” value is recorded as “A (9 mass % or more)”; the “Solubility evaluation, Polyethersulfone resin” value is “A (9 mass % or more)”. Besides, in data set [2], the “εA (maximum absorption constant, 430 to 550 nm)” value was found to be 0.019; the “εB (maximum absorption constant, 670 to 730 nm)” value was 1; the εB/εA is recorded as 53.5; the “λ80 (wavelength of 80% transmittance, shorter side of λmax, transmittance at λmax set to 10%)” value came out at 632 nm. In data set [2], the “λmax (maximum absorption wavelength)” value was 690 nm and the λmax-λ80 is recorded as 58 nm.

`CCCOC(=O)Nc1cc2c(cc1C1=C([O-])C(=c3cc4c(cc3NC(=O)OCCC)=[N+](C)C(C)C4(C)C)C1=O)C(C)(C)C(C)N2C` (stereo not drawn) [A1-2]: in data set [1], the “Solubility evaluation, Polyimide resin” value is “A (9 mass % or more)”; the “Solubility evaluation, Polyester resin” value is recorded as “A (9 mass % or more)”; the “Solubility evaluation, Polyethersulfone resin” value is given as “A (9 mass % or more)”. Besides, in data set [2], the “εA (maximum absorption constant, 430 to 550 nm)” value is reported as 0.017; the “εB (maximum absorption constant, 670 to 730 nm)” value turned out to be 1; the εB/εA came to 59.0; the “λ80 (wavelength of 80% transmittance, shorter side of λmax, transmittance at λmax set to 10%)” value is given as 633 nm. For the same molecule, in data set [2], the “λmax (maximum absorption wavelength)” value is 691 nm and the λmax-λ80 is 58 nm.

Consider `CCCCCOC(=O)Nc1cc2c(cc1C1=C([O-])C(=c3cc4c(cc3NC(=O)OCCCCC)=[N+](C(C)(C)CC)C(C)C4(C)C)C1=O)C(C)(C)C(C)N2C(C)(C)CC` (stereo not drawn) [A1-11], for which, in data set [1], the “Solubility evaluation, Polyimide resin” value is “A (9 mass % or more)”; the “Solubility evaluation, Polyester resin” value is “A (9 mass % or more)”; the “Solubility evaluation, Polyethersulfone resin” value is “A (9 mass % or more)”. Also, in data set [2], the “εA (maximum absorption constant, 430 to 550 nm)” value is on record as 0.016; the “εB (maximum absorption constant, 670 to 730 nm)” value came to 1; the εB/εA is reported as 61.3; the “λ80 (wavelength of 80% transmittance, shorter side of λmax, transmittance at λmax set to 10%)” value turned out to be 658 nm. For the same molecule, in data set [2], the “λmax (maximum absorption wavelength)” value is on record as 705 nm and the λmax-λ80 is 47 nm.
